Reference: patent publication US10149890B2 (priority 2010, dated 2018)
“And” between values parts separate entries of the source, which are not always exact repeats. Equal values may be shown once.

Columns and labels:
[1] = system: influenza virus strain A/FPV/Rostock/34; set-up: species or system chickens; details: in vivo
[2] = system: human immunodeficiency virus HIV-1 (LAI); format: cell-based; details: 0.01 mg/ml
[3] = system: human immunodeficiency virus HIV-1 (LAI); format: cell-based
[4] = system: clinical isolates of MRSA and MSSA, Staphylococcus aureus ATCC 43300 and ATCC 29213; format: cell-based; details: for MIC of the antibiotic alone: before combination with FS-1

`CC(N)C12CC3CC(CC(C3)C1)C2` (stereo not shown) [Rimantadine] was tested, and the “Number of chickens that died” value [1] was 10 and 8, the “Number of survived chickens” value [1] was 4 and 6 and the Survival % [1] was 28.6 ± 12.53% and 42.9 ± 13.73%.

`Cc1cn([C@H]2C[C@H](N=[N+]=[N-])[C@@H](CO)O2)c(=O)[nH]c1=O` [azidothymidine] was tested, and the “Decrease of reverse transcriptase content compared with negative control” value [2] was 5 times, the “Extinction factor (reverse transcriptase)” value [2] was 0.5724 ± 0.005464 and the “Extinction factor (p24)” value ([3]; 0.01 mg/ml) was 0.0446 ± 0.003187. For the same compound, the “Decrease of p24 protein compared to placebo” value ([3]; FS-1 0.188 and 0.094 mg/ml, azidothymidine 0.01 mg/ml) was 60 times.

With `Cn1nnnc1SCC1=C(C(=O)O)N2C(=O)[C@@H](NC(=O)[C@H](O)c3ccccc3)[C@H]2SC1` [cefamandole] the “MIC of the antibiotic in combination with FS-1” value (“MIC … with FS-1” below) [4] was 8 µg/mL and the “MIC of the antibiotic alone” value [4] was 64 µg/mL.

In the case of `CCC[C@@H]1C[C@@H](C(=O)N[C@@H]([C@H]2O[C@H](SC)[C@H](O)[C@@H](O)[C@H]2O)[C@@H](C)O)N(C)C1` [lincomycin], the “MIC … with FS-1” value [4] is reported as 8 µg/mL and the “MIC of the antibiotic alone” value [4] is reported as 64 µg/mL.

With `Cc1onc(-c2ccccc2)c1C(=O)N[C@@H]1C(=O)N2[C@@H]1SC(C)(C)[C@@H]2C(=O)O` [oxacillin] the “MIC … with FS-1” value [4] was 64 µg/mL and the “MIC of the antibiotic alone” value [4] was 256 µg/mL.
